This note sets out measurements from US11730720B2, “ALK5 inhibitors” (THERAVANCE BIOPHARMA R&D IP, LLC, priority 2018, dated 2023).

Assay [1] concerns TGF-β-stimulated SMAD3 phosphorylation in BEAS-2B cells. As to the kind of experiment: Cellular ALK5 potency assay, inhibition of TGF-β stimulated pSMAD3 formation in BEAS-2B cells. The following applies: Homo sapiens, inhibition of TGF-β (10 ng/mL) stimulated pSMAD3 formation, 1 hour compound incubation, read-out: BEAS2B pIC50 (converted). The format is cell-based. The method, then:
Example 255: Cellular ALK5 Potency Assay to Measure pIC50, Inhibition of TGF-β Stimulated pSMAD3 Formation in BEAS-2B Cells
The potency of compounds of the present disclosure for inhibition of TGF-β-stimulated SMAD3 phosphorylation was measured in BEAS-2B cells, a human lung epithelial cell line. TGF-β signals through activin receptor-like kinase 5 (ALK5) immediately prior to SMAD3 phosphorylation.
BEAS-2B cells were grown using 50% DMEM (Life Technologies) and 50% F-12 (Life Technologies) media, supplemented with 10% Fetal Bovine Serum (ATCC), 25 mM HEPES (Life Technologies), and 1×Pen-Strep (Life Technologies). Cells were cultured in a humidified incubator set at 37° C., 5% CO2, and trypsonized using 0.25% Trypsin with 0.5% polyvinylpyrrolidone (PVP).
For the assay, BEAS-2B cells were seeded at 7,500 cells/well (25 μL/well) in a 384-well plate and cultured overnight. Before dosing, growth media was aspirated and the wells were rinsed with HBSS Buffer (HBSS with Calcium and Magnesium, Life Technologies) supplemented with 25 mM HEPES (Life Technologies) and 1% Bovine Serum Albumin (Roche). Compounds were serially diluted in DMSO, then further diluted with supplemented HBSS Buffer (50 μL/well) to create a compound plate 3× of the final assay concentration, at 0.3% DMSO. The diluted compounds were then added to the cells (8 μL/well) and incubated at 37° C., 5% CO2 for 1 hour. After the compound incubation, TGF-β (R&D Systems) reconstituted in supplemented HBSS Buffer was added to the cells ([…], final concentration 10 ng/mL) and incubated for a further 30 minutes, after which the cells were immediately lysed with AlphaLISA lysis buffer (PerkinElmer). AlphaLISA Acceptor and Detector beads (PerkinElmer) were added 2 hours apart, then incubated overnight to be read the next day. The potency of the compound was determined through analysis of dose-dependent quantified changes in pSMAD3 signal from baseline (non-compound treated TGF-β stimulated cells). Data are expressed as pIC50 (negative decadic logarithm IC50) values.

Assay [2] concerns the target T1, recombinant human ALK5 (TGF-βR1) protein (Homo sapiens, UniProt P36897).
T1 construct: purchased Life Technologies PR9075A
T1 sequence (P36897 34-503): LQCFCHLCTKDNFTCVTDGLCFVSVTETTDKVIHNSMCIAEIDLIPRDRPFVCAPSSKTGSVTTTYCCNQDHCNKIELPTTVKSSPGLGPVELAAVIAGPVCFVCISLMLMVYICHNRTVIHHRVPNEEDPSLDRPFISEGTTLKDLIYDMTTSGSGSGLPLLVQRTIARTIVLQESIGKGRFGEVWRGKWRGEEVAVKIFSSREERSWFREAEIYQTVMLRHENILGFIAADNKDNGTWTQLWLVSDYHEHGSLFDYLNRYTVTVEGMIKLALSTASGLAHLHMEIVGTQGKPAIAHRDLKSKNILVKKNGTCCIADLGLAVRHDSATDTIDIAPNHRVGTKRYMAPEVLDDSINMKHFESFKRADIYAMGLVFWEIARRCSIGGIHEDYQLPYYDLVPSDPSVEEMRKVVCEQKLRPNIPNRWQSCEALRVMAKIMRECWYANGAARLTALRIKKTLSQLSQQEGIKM
Briefly: Biochemical ALK5 (TGF-βR1) assay to measure pKi (LANCE Ultra ULight kinase assay). The following applies: apparent pKi, converted from pIC50 using the Cheng-Prusoff equation. The method, then:
Example 254: Biochemical ALK5 (TGF-βR1) Assay to Measure pKi
The assays were performed in a 384-well plate (24 columns×16 wells/rows). An Echo® 550 Liquid Handler (Labcyte) was used to prepare various intermediate concentrations of compounds of the present disclosure in 100% DMSO. From the intermediate concentrations, a range of concentrations (from 10 μM to 25 pM corresponding to volumes up to 105 nL) were prepared and ejected into a final assay plate to be used to create individual dose response curves for each of the subject compounds. To a separate column within the assay plate, 105 nL of DMSO in each well was used to establish a maximum assay signal. Additionally, 105 nL of 100 μM SD-208, a selective TGF-βR1 inhibitor (Catalog #S7624, Selleck Chemicals), was used in another column of wells to establish a minimal assay signal.
With a multidrop dispenser, 8 μL of enzyme mixture (1.25× final) was added to each well. The enzyme mixture consisted of 250 pM ALK5 enzyme and 62.5 nM peptide substrate (LANCE® (lanthanide chelate excite) Ultra ULight™-DNA Topoisomerase 2-alpha (Thr1342)) prepared in assay buffer (50 mM HEPES, 10 mM MgCl2, 1 mM EGTA, 0.01% Tween-20, pH 7.5 at room temperature) with 2 mM DTT added prior to use. The plate was then sealed with an adhesive seal and allowed to equilibrate for 60 minutes at room temperature.
Next, 2 μL of 125 μM ATP (5× final, 125 μM ATP prepared in assay buffer with 2 mM DTT) was added to the incubated mixtures, covered with a MicroClime® Environmental Lid (Product No. LLS-0310, Labcyte) and immediately transferred to 37° C. The reactions were allowed to proceed at 37° C. for 60 minutes before terminating with the addition of 10 μL of detection antibody (LANCE® (lanthanide chelate excite) Ultra Europium-anti-phospo-DNA Topoisomerase 2-alpha (Thr1342)) in detection mixture (12 mM EDTA, 4 nM detection antibody prepared in detection buffer (50 mM Tris-HCl, 150 mM NaCl, 0.5% BSA (Fraction V), pH 7.0)) at room temperature. The plate was then read on a Perkin Elmer EnVision Plate Reader using europium specific reader settings with excitation and emission wavelengths set to 320 or 340 nm and 665 nm, respectively.
For dose-response analyses, percent inhibition versus compound concentrations were plotted, and pIC50 values were determined from a 4-parameter robust fit model with GraphPad Prism V5 Software (GraphPad Software, Inc., La Jolla, Calif.). This model obtains pIC50 values by fitting the sigmodial dose-response (variable slope) equation to the data. Results were expressed as pIC50 (negative logarithm of IC50) and subsequently converted to pKi (negative logarithm of dissociate constant, K) using the Cheng-Prusoff equation.
The higher the value of pKi (lower value of Ki), the greater the inhibition of ALK5 activity.
For orientation: Time-resolved FRET reads energy transfer from a long-lived donor to a nearby acceptor.

As for `Fc1ccc(Cl)cc1-c1n[nH]cc1-c1ccc2ncc(NCC3CN4CCN3CC4)cc2n1` (stereo not shown) [Compound 1-10, 6-[3-(5-chloro-2-fluoro-phenyl)-1H-pyrazol-4-yl]-N-(1,4-diazabicyclo[2.2.2]octan-2-ylmethyl)-1,5-naphthyridin-3-amine], the IC50 in assay [1] was at most 20 nM. In assay [2], the Ki is 0.0398 to 0.316 nM.
The matching figures for `CCN1CCN(CCNc2cnc3ccc(-c4c[nH]nc4-c4cc(Cl)ccc4F)nc3c2)CC1` [Compound 1-11, 6-[3-(5-chloro-2-fluoro-phenyl)-1H-pyrazol-4-yl]-N-[2-(4-ethylpiperazin-1-yl)ethyl]-1,5-naphthyridin-3-amine]: at most 20 nM and 0.0398 to 0.316 nM.
The matching figures for `CN1CCN(CCNc2cnc3ccc(-c4c[nH]nc4-c4cc(Cl)ccc4F)nc3c2)CC1` [Compound 1-12, 6-[3-(5-chloro-2-fluoro-phenyl)-1H-pyrazol-4-yl]-N-[2-(4-methylpiperazin-1-yl)ethyl]-1,5-naphthyridin-3-amine]: at most 20 nM and 0.0398 to 0.316 nM.
In the same order, the values of `CC1(C)CCCN1CCNc1cnc2ccc(-c3c[nH]nc3-c3cc(Cl)ccc3F)nc2c1` [Compound 1-13, 6-[3-(5-chloro-2-fluoro-phenyl)-1H-pyrazol-4-yl]-N-[2-(2,2-dimethylpyrrolidin-1-yl)ethyl]-1,5-naphthyridin-3-amine] are at most 20 nM and 0.0398 to 0.316 nM.
With `Fc1ccc(Cl)cc1-c1n[nH]cc1-c1ccc2ncc(NCCN3CCCC3)cc2n1` [Compound 1-14, 6-[3-(5-chloro-2-fluoro-phenyl)-1H-pyrazol-4-yl]-N-(2-pyrrolidin-1-ylethyl)-1,5-naphthyridin-3-amine], the IC50 in assay [1] was at most 20 nM. Further, the Ki in assay [2] was 0.0398 to 0.316 nM.
The matching figures for `Fc1ccc(Cl)cc1-c1n[nH]cc1-c1ccc2ncc(Nc3ccc(N4CCNCC4)cn3)cc2n1` [Compound 1-15, 6-(3-(5-chloro-2-fluorophenyl)-1H-pyrazol-4-yl)-N-(5-(piperazin-1-yl)pyridin-2-yl)-1,5-naphthyridin-3-amine]: 25.1 to 158 nM and 0.0398 to 0.316 nM.
The matching figures for `Fc1ccc(Cl)cc1-c1n[nH]cc1-c1ccc2ncc(NCC3CCNC3)cc2n1` (stereo not shown) [Compound 1-16, 6-[3-(5-chloro-2-fluoro-phenyl)-1H-pyrazol-4-yl]-N-(pyrrolidin-3-ylmethyl)-1,5-naphthyridin-3-amine]: 25.1 to 158 nM and 0.0398 to 0.316 nM.
Regarding `Fc1ccc(Cl)cc1-c1n[nH]cc1-c1ccc2ncc(NCC3CCN3)cc2n1` (stereo not shown) [Compound 1-17, N-(azetidin-2-ylmethyl)-6-[3-(5-chloro-2-fluoro-phenyl)-1H-pyrazol-4-yl]-1,5-naphthyridin-3-amine], the IC50 in assay [1] is 25.1 to 158 nM. The Ki in assay [2] is 0.0398 to 0.316 nM.
With `Fc1ccc(Cl)cc1-c1n[nH]cc1-c1ccc2ncc(NC3CNC3)cc2n1` [Compound 1-18, N-(azetidin-3-yl)-6-[3-(5-chloro-2-fluoro-phenyl)-1H-pyrazol-4-yl]-1,5-naphthyridin-3-amine], in assay [1], the IC50 is 25.1 to 158 nM. The Ki in assay [2] is 0.0398 to 0.316 nM.
Regarding `Fc1ccc(Cl)cc1-c1n[nH]cc1-c1ccc2ncc(N[C@@H]3CCNC3)cc2n1` [Compound 1-19, 6-[3-(5-chloro-2-fluoro-phenyl)-1H-pyrazol-4-yl]-N-[(3R)-pyrrolidin-3-yl]-1,5-naphthyridin-3-amine], the IC50 in assay [1] was 25.1 to 158 nM. Further, the Ki in assay [2] was 0.398 to 3.16 nM.
In the same order, the values of `Fc1ccc(Cl)cc1-c1n[nH]cc1-c1ccc2ncc(NC[C@@H]3CCCN3)cc2n1` [Compound 1-20, 6-[3-(5-chloro-2-fluoro-phenyl)-1H-pyrazol-4-yl]-N-[[(2S)-pyrrolidin-2-yl]methyl]-1,5-naphthyridin-3-amine] are at most 20 nM and 0.0398 to 0.316 nM.
Take `Fc1ccc(Cl)cc1-c1n[nH]cc1-c1ccc2ncc(NCCN3CCNCC3)cc2n1` [Compound 1-21, 6-[3-(5-chloro-2-fluoro-phenyl)-1H-pyrazol-4-yl]-N-(2-piperazin-1-ylethyl)-1,5-naphthyridin-3-amine]: the IC50 in assay [1] was 25.1 to 158 nM. Besides, the Ki in assay [2] is 0.0398 to 0.316 nM.
In the case of `COC(=O)C1CN(CCNc2cnc3ccc(-c4c[nH]nc4-c4cc(Cl)ccc4F)nc3c2)CCN1` (stereo not shown) [Compound 1-22, methyl 4-[2-[[6-[3-(5-chloro-2-fluoro-phenyl)-1H-pyrazol-4-yl]-1,5-naphthyridin-3-yl]amino]ethyl]piperazine-2-carboxylate], the IC50 in assay [1] is 25.1 to 158 nM. Besides, in assay [2], the Ki was 0.0398 to 0.316 nM.
The matching figures for `Fc1ccc(Cl)cc1-c1n[nH]cc1-c1ccc2ncc(NCC3CCCCN3)cc2n1` (stereo not shown) [Compound 1-23, 6-[3-(5-chloro-2-fluoro-phenyl)-1H-pyrazol-4-yl]-N-(2-piperidylmethyl)-1,5-naphthyridin-3-amine]: 25.1 to 158 nM and 0.0398 to 0.316 nM.
In the same order, the values of `Fc1ccc(Cl)cc1-c1n[nH]cc1-c1ccc2ncc(NC3CCNCC3)cc2n1` [Compound 1-24, 6-[3-(5-chloro-2-fluoro-phenyl)-1H-pyrazol-4-yl]-N-(4-piperidyl)-1,5-naphthyridin-3-amine] are 25.1 to 158 nM and 0.0398 to 0.316 nM.
For `Fc1ccc(Cl)cc1-c1n[nH]cc1-c1ccc2ncc(NC3CCCNC3)cc2n1` (stereo not shown) [Compound 1-25, 6-[3-(5-chloro-2-fluoro-phenyl)-1H-pyrazol-4-yl]-N-(3-piperidyl)-1,5-naphthyridin-3-amine], the IC50 in assay [1] is 25.1 to 158 nM. The Ki in assay [2] was 0.398 to 3.16 nM.
The matching figures for `Fc1ccc(Cl)cc1-c1n[nH]cc1-c1ccc2ncc(NCC3CNCCN3)cc2n1` (stereo not shown) [Compound 1-26, 6-[3-(5-chloro-2-fluoro-phenyl)-1H-pyrazol-4-yl]-N-(piperazin-2-ylmethyl)-1,5-naphthyridin-3-amine]: 25.1 to 158 nM and 0.0398 to 0.316 nM.
